{"source": "patent US20260232666A1", "about": "“COMPOSITIONS AND METHODS FOR INHIBITION OF RAS” (TheRas, Inc., priority 2023, published 2026)"}
{"target": "T1, Avi-KRAS G12C (1-169) GppNHp/RAF1 RBD-3×FLAG (52-151) (Homo sapiens, UniProt P01116, G12C)", "T1 construct": "Avi-KRAS G12C (1-169) GppNHp; Avi (N)", "T1 sequence (P01116 1-169 isoform P01116-2 G12C limits assumed)": "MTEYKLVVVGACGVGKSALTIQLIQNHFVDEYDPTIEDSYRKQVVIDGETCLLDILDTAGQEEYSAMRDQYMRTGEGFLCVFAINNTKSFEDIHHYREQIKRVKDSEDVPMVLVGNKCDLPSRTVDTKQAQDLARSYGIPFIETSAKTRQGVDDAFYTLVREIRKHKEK", "assay": "Raf1 RBD-KRAS G12C-GppNHp disruption assay (protein:protein interaction HTRF)", "assay_type": "biochemical", "method": "Biological Example 2: Disrupting KRAS G12C-Effector Binding (Protein: Protein Interaction HTRF Assay)\nA protein: protein interaction (PPI) Homogeneous Time Resolved Fluorescence (HTRF) assay was used to determine the effectiveness of compounds of the present disclosure in disrupting KRAS G12C protein and effector (RAF1 Ras Binding Domain (RBD)) binding.\nThe HTRF assay used the following reagents and proteins: 50 nM Avi-KRAS G12C (1-169) GppNHp/RAF1 RBD-3×FLAG (52-151); 35 nM Avi-PI3K RBD-3×FLAG; Assay Buffer: 50 mM Tris pH 7.5, 100 mM NaCl, 5 mM MgCl2, 0.1% BSA, 0.01% Tween 20, 10% DMSO; Bead Buffer: 50 mM Tris pH 7.5, 0.01% Tween 20; Assay volume: 20 μL (384 well plate-low volume format); and Compound titration: 30-0.02 μM, 3× dilution series.\nThe HTRF assay employed the following protocol:\nCompounds were dispensed in assay plate (384-well, Grenier Bio-One #784075) using Echo (model 555) with dose response settings: 200 nL final volume, titration from 100 μM as a 10-point dilution series. KRAS proteins were prepared in assay buffer, and dispensed on plates, 5 μL per well, then incubated for 1 h at room temperature, with 700 rpm shaking. RAF1 RBD were prepared in assay buffer, dispensed onto plates, 5 μL per well, and then incubated for 1 h at room temperature, with 700 rpm shaking. Reagent mix was then prepared and dispensed on plates, 10 μL per well, and then incubated for 1 h at room temperature, with 700 rpm shaking.\nPlates were analyzed on an Envision plate reader using the following setting: Excitation 320 nm, Bandwidth 75 nm; Emission 615 nm, Bandwidth 85 nm; Gain 100%; Flashes 100; Lag 60 μs. Data was reported as percentage of activity, with DMSO as 100%. Data was plotted and analyzed using Prism 8.\nThe percent of modification of GppNHp, GTP, or GDP loaded KRAS G12C by MALDI-TOF MS, biochemical Raf1 RBD-KRAS G12C-GppNHp disruption assay IC50, and pERK inhibition IC50 of selected compounds described herein are shown in Table 4. For percent of modification at 15 minutes (MALDI-TOF MS) of GppNHp, GTP, or GDP loaded KRAS G12C: A: percent of modification ≥70%; B: 50≤percent of modification <70%; C: 10%≤percent of modification <50%; D: percent of modification <10%. […] For pERK inhibition in H358 cell assay: A: IC50≤0.1 μM; B: 0.1 μM<IC50≤1 μM; C: IC50>1 μM. Blanks in the table represent that compound was not tested in the indicated assay.", "units": {"IC50": "nM"}}
{"compound": "C=CC(=O)N1CC[C@@H](N(C)c2nc(OC[C@@H]3C[C@@H](F)CN3CC)nc3c(F)c(-c4ccc(F)c5sc(N)c(C#N)c45)c(C(F)(F)F)cc23)[C@@H]1C", "note": "[Compound 144]", "IC50": "< 500"}
{"compound": "C=CC(=O)N1CC[C@H](N(CC)c2nc(OC[C@@]34CCCN3C[C@H](F)C4)nc3c(F)c(-c4ccc(F)c5sc(N)c(C#N)c45)c(C(F)(F)F)cc23)C1", "note": "(atropisomer, axis not shown) [Compound 171]", "IC50": "< 500"}
{"compound": "C=CC(=O)N1CC[C@@H](N(C)c2nc(OC[C@@H]3CCCN3CC)nc3c(F)c(-c4ccc(F)c5sc(N)c(C#N)c45)c(C(F)(F)F)cc23)[C@@H]1C", "note": "[Compound 30]", "IC50": "< 500"}
{"compound": "C=CC(=O)N1C[C@H](N(C)c2nc(OC[C@@]34CCCN3C[C@H](F)C4)nc3cc(-c4ccc(F)c5sc(N)c(C#N)c45)c(F)cc23)C[C@@H]1C", "note": "[Compound 109]", "IC50": "< 500"}
{"compound": "C=CC(=O)N1CCN(c2nc(OC[C@@]34CCCN3C[C@H](F)C4)nc3c(F)c(-c4ccc(F)c5sc(N)c(C#N)c45)c(C(F)(F)F)cc23)C2CC21", "note": "(stereo partly shown) [Compound 106]", "IC50": "< 500"}
{"compound": "C=CC(=O)N1CC[C@@H](N(CC)c2nc(OC[C@@]34CCCN3C[C@H](F)C4)nc3cc(-c4ccc(F)c5sc(N)c(C#N)c45)c(C#N)cc23)[C@H]1C", "note": "[Compound 25]", "IC50": "< 500"}
{"compound": "C=CC(=O)N1CC[C@@H](N(CC)c2nc(OC[C@]34CCCN3C[C@H](F)C4)nc3cc(-c4ccc(F)c5sc(N)c(C#N)c45)c(F)cc23)[C@H]1C", "note": "[Compound 167]", "IC50": "< 500"}
{"compound": "C=CC(=O)N1CC[C@@H](N(C)c2nc(OC[C@@H]3CCCN3C)nc3c(F)c(-c4nc(N)cc(C)c4C(F)(F)F)c(C(F)(F)F)cc23)[C@H]1C", "note": "[Compound 122]", "IC50": "< 500"}
{"compound": "C=CC(=O)N1CC[C@@H](N(C)c2nc(OC[C@@H]3CC4(CC4)CN3C)nc3c(F)c(-c4ccc(F)c5sc(N)c(C#N)c45)c(C(F)(F)F)cc23)[C@@H]1C", "note": "[Compound 112]", "IC50": "500 to 5000"}
{"compound": "C=CC(=O)N1CC[C@@H](N(C)c2nc(OC[C@@H]3C[C@@H](OC)CN3CC)nc3c(F)c(-c4ccc(F)c5sc(N)c(C#N)c45)c(C(F)(F)F)cc23)[C@@H]1C", "note": "[Compound 101]", "IC50": "< 500"}
{"compound": "C=CC(=O)N1CC[C@@H](N(C)c2nc(OC[C@@]34CCCN3C[C@H](OC)C4)nc3c(F)c(-c4ccc(F)c5sc(N)c(C#N)c45)c(C(F)(F)F)cc23)[C@H]1C", "note": "[Compound 151]", "IC50": "< 500"}
{"compound": "C=CC(=O)N1CC[C@@H](N(C)c2nc(OC[C@@H]3C[C@@H](OC)CN3CC)nc3c(F)c(-c4ccc(F)c5sc(N)c(C#N)c45)c(C(F)(F)F)cc23)[C@H]1C", "note": "[Compound 104]", "IC50": "< 500"}
{"compound": "C=CC(=O)N1CC[C@@H](N(C)c2nc(OC[C@@H]3CCCN3C)nc3c(F)c(-c4ccc(F)c5sc(N)c(C#N)c45)c(Cl)cc23)[C@H]1C", "note": "(atropisomer, axis not shown) [Compound 118]", "IC50": "< 500"}
{"compound": "C=CC(=O)N1C2CCC1CN(c1nc(OC[C@@]34CCCN3C[C@H](F)C4)nc3c(F)c(-c4ccc(F)c5sc(N)c(C#N)c45)c(C(F)(F)F)cc13)C2", "note": "[Compound 34]", "IC50": "< 500"}
{"compound": "C=CC(=O)N1C[C@H](N(C)c2nc(OC[C@@]34CCCN3C[C@H](F)C4)nc3c(F)c(-c4ccc(F)c5sc(N)c(C#N)c45)c(C(F)(F)F)cc23)C[C@H]1C", "note": "(atropisomer, axis not shown) [Compound 177]", "IC50": "500 to 5000"}
{"compound": "C=CC(=O)N1CC[C@@H](N(CC)c2nc(OC[C@@H]3CC4(CC4)CN3C)nc3c(F)c(-c4ccc(F)c5sc(N)c(C#N)c45)c(Cl)cc23)[C@H]1C", "note": "(atropisomer, axis not shown) [Compound 120]", "IC50": "< 500"}
{"compound": "C=CC(=O)N1C[C@H](N(C)c2nc(OC[C@@H]3CCCN3C)nc3c(F)c(-c4ccc(F)c5sc(N)c(C#N)c45)c(C(F)(F)F)cc23)C[C@@H]1C", "note": "[Compound 153]", "IC50": "< 500"}
{"compound": "C=CC(=O)N1CC[C@@H](N(CC)c2nc(OC[C@]34CCCN3C[C@H](F)C4)nc3c(F)c(-c4ccc(F)c5sc(N)c(C#N)c45)c(C(F)(F)F)cc23)[C@H]1C", "note": "[Compound 159]", "IC50": "< 500"}
{"compound": "C=CC(=O)N1CC[C@@H](N(CC)c2nc(OC[C@@H]3CCCN3C)nc3cc(-c4ccc(F)c5sc(N)c(C#N)c45)c(F)cc23)[C@H]1C", "note": "[Compound 138]", "IC50": "< 500"}
{"compound": "C=CC(=O)N1CCC(N(CC)c2nc(OC[C@@]34CCCN3C[C@H](F)C4)nc3cc(-c4ccc(F)c5sc(N)c(C#N)c45)c(C#N)cc23)[C@H]1CC", "note": "(stereo partly shown) [Compound 14]", "IC50": "< 500"}
{"compound": "C=CC(=O)N1CC[C@@H](N(CC)c2nc(OC[C@@H]3C[C@@H](OC)CN3C)nc3c(F)c(-c4ccc(F)c5sc(N)c(C#N)c45)c(C(F)(F)F)cc23)[C@H]1C", "note": "(single isomer, unassigned) [Compound 117]", "IC50": "5000 to 20000"}
{"compound": "C=CC(=O)N1CC[C@@H](N(C)c2nc(OC[C@@H]3C[C@@H](OC)CN3C)nc3c(F)c(-c4ccc(F)c5sc(N)c(C#N)c45)c(C(F)(F)F)cc23)[C@@H]1C", "note": "[Compound 33]", "IC50": "< 500"}
{"compound": "C=CC(=O)N1CC[C@@H](N(CC)c2nc(OC[C@@H]3C[C@@H](OC)CN3C)nc3c(F)c(-c4ccc(F)c5sc(N)c(C#N)c45)c(C(F)(F)F)cc23)[C@H]1C", "note": "(single isomer, unassigned) [Compound 116]", "IC50": "< 500"}
{"compound": "C=CC(=O)N1CC[C@@H](N(CC)c2nc(OC[C@@H]3CC4(CC4)CN3C)nc3c(F)c(-c4ccc(F)c5sc(N)c(C#N)c45)c(Cl)cc23)[C@H]1C", "note": "(atropisomer, axis not shown) [Compound 121]", "IC50": "5000 to 20000"}
{"compound": "C=CC(=O)N1C[C@H](N(C)c2nc(OC[C@@]34CCCN3C[C@H](F)C4)nc3c(F)c(-c4ccc(F)c5sc(N)c(C#N)c45)c(C(F)(F)F)cc23)C[C@@H]1C", "note": "[Compound 108]", "IC50": "< 500"}
{"compound": "C=CC(=O)N1CC[C@@H](N(C)c2nc(OC[C@@]34CCCN3C[C@H](F)C4)nc3cc(-c4ccc(F)c5sc(N)c(C#N)c45)c(F)cc23)[C@@H]1CC", "note": "[Compound 22]", "IC50": "500 to 5000"}
{"compound": "C=CC(=O)N1CC[C@@H](N(C)c2nc(OC[C@@H]3C[C@@H](OC)CN3C)nc3c(F)c(-c4ccc(F)c5sc(N)c(C#N)c45)c(C(F)(F)F)cc23)[C@H]1C", "note": "(single isomer, unassigned) [Compound 174]", "IC50": "500 to 5000"}
{"compound": "C=CC(=O)N1CC[C@@H](N(C)c2nc(OC[C@@H]3C[C@@H](OC)CN3C)nc3c(F)c(-c4ccc(F)c5sc(N)c(C#N)c45)c(C(F)(F)F)cc23)[C@H]1C", "note": "(single isomer, unassigned) [Compound 172]", "IC50": "< 500"}
{"compound": "C=CC(=O)N1CC[C@@H](N(CC)c2nc(OC[C@@H]3C[C@@H](F)CN3C)nc3c(F)c(-c4ccc(F)c5sc(N)c(C#N)c45)ccc23)[C@H]1C", "note": "[Compound 142]", "IC50": "< 500"}
{"compound": "C=CC(=O)N1CC[C@@H](N(CC)c2nc(OC[C@@]34CCCN3C[C@H](OC)C4)nc3c(F)c(-c4ccc(F)c5sc(N)c(C#N)c45)c(C(F)(F)F)cc23)[C@H]1C", "note": "[Compound 150]", "IC50": "< 500"}
{"compound": "C=CC(=O)N1CC[C@@H](N(CC)c2nc(OC[C@@H]3C[C@@H](F)CN3C)nc3c(F)c(-c4ccc(F)c5sc(N)c(C#N)c45)c(C(F)(F)F)cc23)[C@H]1C", "note": "(atropisomer, axis not shown) [Compound 114]", "IC50": "5000 to 20000"}
{"compound": "C=CC(=O)N1CC[C@@H](N(C)c2nc(OC[C@]34CCCN3C[C@H](OC)C4)nc3c(F)c(-c4ccc(F)c5sc(N)c(C#N)c45)c(C(F)(F)F)cc23)[C@H]1C", "note": "[Compound 156]", "IC50": "< 500"}
{"compound": "C=CC(=O)N1CC[C@@H](N(CC)c2nc(OC[C@@]34CCCN3C[C@H](OC)C4)nc3c(F)c(-c4ccc(F)c5sc(N)c(C#N)c45)c(Cl)cc23)[C@H]1C", "note": "[Compound 163]", "IC50": "< 500"}
{"compound": "C=CC(=O)N1CC[C@@H](N(C)c2nc(OC[C@]34CCCN3C[C@H](OC)C4)nc3c(F)c(-c4ccc(F)c5sc(N)c(C#N)c45)c(Cl)cc23)[C@H]1C", "note": "[Compound 161]", "IC50": "< 500"}
{"compound": "C=CC(=O)N1CC[C@@H](N(CC)c2nc(OC[C@@]34CCCN3C[C@H](F)C4)nc3c(F)c(-c4ccc(F)c5sc(N)c(C#N)c45)c(Cl)cc23)[C@H]1CC", "note": "[Compound 20]", "IC50": "< 500"}
{"compound": "C=CC(=O)N1CC[C@@H](N(C)c2nc(OC[C@@H]3C[C@@H](F)CN3CC)nc3c(F)c(-c4ccc(F)c5sc(N)c(C#N)c45)c(Cl)cc23)[C@@H]1C", "note": "[Compound 105]", "IC50": "< 500"}
{"compound": "C=CC(=O)N1C[C@H]2CC[C@@H]1CN2c1nc(OC[C@@]23CCCN2C[C@H](F)C3)nc2c(F)c(-c3ccc(F)c4sc(N)c(C#N)c34)c(C(F)(F)F)cc12", "note": "[Compound 36]", "IC50": "500 to 5000"}
